Measurements from PMC6152673, “Discovery of Indeno[1,2-c]quinoline Derivatives as Potent Dual Antituberculosis and Anti-Inflammatory Agents” (Molecules : A Journal of Synthetic Chemistry and Natural …, 2017).
Values after ≈ are worked out from the molar mass of the structure shown.

Legend:
[1] = test system: fMLF-activated human neutrophils (superoxide anion generation); assay: Superoxide anion generation in fMLF-activated human neutrophils; assay type: cell-based; conditions: for IC50: Neutrophil, fMLF/cytochalasin B-activated human neutrophils, mean ± SEM (n = 3); for Inhibitory effect on superoxide anion generation (in words): fMLF-activated human neutrophils
Protocol: (§1) Superoxide generation and elastase release were carried out according to the procedures described previously. Neutrophils (6 × 10^5/mL) were equilibrated at 37 °C for 2 min and incubated with compounds for 5 min. Neutrophils were then activated by fMLF (100 nM) in the pretreatment of cytochalasin B (1 µg/mL for superoxide generation and 0.5 µg/mL for elastase release) for 10 min. Superoxide anion production was assayed by monitoring the superoxide dismutase-inhibitable reduction of ferricytochrome C. Elastase release was performed using MeO-Suc-Ala-Ala-Pro-Valp-nitroanilide as the elastase substrate.

[2] = test system: M. tuberculosis H37Rv (ATCC 27294); assay: Anti-Mycobacterium activity, broth microdilution Microplate Alamar Blue Assay (MABA); assay type: cell-based; conditions: MIC = lowest concentration effecting 90% reduction in fluorescence
[3] = test system: fMLF-activated human neutrophils (neutrophil elastase release); assay: Neutrophil elastase release in fMLF-activated human neutrophils; assay type: cell-based; conditions: for IC50: Neutrophil, fMLF/cytochalasin B-activated human neutrophils, mean ± SEM (n = 3); for Inhibitory effect on NE release (in words): fMLF-activated human neutrophils
Protocol: as §1

Vero cells = assay: Vero cell viability (MTT, Promega Cell Titer 96)

Compound	IC50 [1] [nM]	MIC [2] [µg/mL]	melting point [°C]	IC50 [3] [nM]	Survival Rate of Vero Cells @ 20 μg/mL (Vero cells) [%]	Inhibitory effect on superoxide anion generation (in words) [1]	Inhibitory effect on NE release (in words) [3]
O=C1c2ccccc2-c2c(N3CCCC3)nc3ccccc3c21 [Compound 3a, 6-(Pyrrolidin-1-yl)-11H-indeno[1,2-c]quinolin-11-one]	> 10000	4.56 (≈ 15.2 µM)	163 to 164	> 10000	88.61	–	–
O=C1c2ccccc2-c2c(N3CCOCC3)nc3ccccc3c21 [Compound 3c, 6-(Morpholino-1-yl)-11H-indeno[1,2-c]quinolin-11-one]	> 10000	3.12 (≈ 9.86 µM)	171 to 173	> 10000	91.19	–	–
NC(=O)N/N=C1\c2ccccc2-c2c(N3CCC(O)CC3)nc3ccccc3c21 [Compound 9, (E)-2-[6-(4-Hydroxypiperidin-1-yl)-11H-indeno[1,2-c]quinolin-11-ylidene]hydrazine Carboxamide]	3640 ± 1430	> 20	289 to 290	> 10000	81.20	–	–
O=C1c2ccccc2-c2c(N3CCCCC3)nc3ccccc3c21 [Compound 3b, 6-(Piperidin-1-yl)-11H-indeno[1,2-c]quinolin-11-one]	> 10000	4.93 (≈ 15.7 µM)	165 to 166	> 10000	96.18	–	–
NNC(=O)c1ccncc1 [INH, isoniazid, reference compound]	–	0.8 to 1.2 (≈ 5.83 to 8.75 µM)	–	–	84.80	–	–
COc1ccc2c(c1)C(=O)c1c-2c(N2CCCC(O)C2)nc2ccccc12 (centres unmarked) [Compound 4e, 6-(3-Hydroxypiperidin-1-yl)-9-methoxy-11H-indeno[1,2-c]quinolin-11-one]	1890 ± 650	19.1 (≈ 53 µM)	191 to 192	2930 ± 700	87.59	–	–
COc1ccc2c(c1)C(=O)c1c-2c(N2CCC(CO)CC2)nc2ccccc12 [Compound 4f, 6-[4-(Hydroxymethyl)piperidin-1-yl]-9-methoxy-11H-indeno[1,2-c]quinolin-11-one]	1930 ± 920	> 20	218 to 219	880 ± 300	90.26	–	–
O=C1c2ccccc2-c2c(N3CCCC(O)C3)nc3ccccc3c21 (centres unmarked) [Compound 3e, 6-(3-Hydroxypiperidin-1-yl)-11H-indeno[1,2-c]quinolin-11-one]	2900 ± 110	4.97 (≈ 15 µM)	211 to 212	2800 ± 90	87.78	–	–
COc1ccc2c(c1)C(=O)c1c-2c(N2CCOCC2)nc2ccccc12 [Compound 4c]	> 10000	> 20	–	> 10000	94.47	–	–
COc1ccc2c(c1)C(=O)c1c-2c(N2CCCC(CO)C2)nc2ccccc12 (centres unmarked) [Compound 4g, 6-[3-(Hydroxymethyl)piperidin-1-yl]-9-methoxy-11H-indeno[1,2-c]quinolin-11-one]	680 ± 140	> 20	243 to 244	460 ± 80	87.60	–	–
NC(=S)N/N=C1\c2ccccc2-c2c(N3CCC(O)CC3)nc3ccccc3c21 [Compound 10, (E)-2-[6-(4-Hydroxypiperidin-1-yl)-11H-indeno[1,2-c]quinolin-11-ylidene]hydrazine Carbothioamide]	2410 ± 360	> 20	304 to 305	> 10000	80.28	–	–
O=C1c2ccccc2-c2c(N3CCC(CO)CC3)nc3ccccc3c21 [Compound 3f, 6-(4-Piperidinemethano-1-yl)-11H-indeno[1,2-c]quinolin-11-one]	3370 ± 170	3.98 (≈ 11.6 µM)	223 to 224	4500 ± 1320	91.11	–	–
O=C1c2ccccc2-c2c(N3CCC(O)CC3)nc3ccccc3c21 [Compound 3d, 6-(4-Hydroxypiperidin-1-yl)-11H-indeno[1,2-c]quinolin-11-one]	1780 ± 440	2.09 (≈ 6.33 µM)	208	2200 ± 690	91.23	–	–
COc1ccc2c(c1)C(=O)c1c-2c(N2CCCC2)nc2ccccc12 [Compound 4a, 9-Methoxy-6-(pyrrolidin-1-yl)-11H-indeno[1,2-c]quinolin-11-one]	> 10000	17 (≈ 51.5 µM)	–	> 10000	89.62	–	–
O=C(N/N=C1\c2ccccc2-c2c(N3CCC(O)CC3)nc3ccccc3c21)c1ccncc1 [Compound 12, (E)-N′-[6-(4-Hydroxypiperidin-1-yl)-11H-indeno[1,2-c]quinolin-11-ylidene]isonicotino Hydrazide]	1720 ± 230	0.96 (≈ 2.14 µM)	282 to 283	1760 ± 490	94.25	–	–
COc1ccc2c(c1)C(=O)c1c-2c(N2CCC(O)CC2)nc2ccccc12 [Compound 4d, 6-(4-Hydroxypiperidin-1-yl)-9-methoxy-11H-indeno[1,2-c]quinolin-11-one]	2820 ± 300	7.74 (≈ 21.5 µM)	–	2050 ± 240	84.72	–	–
CC1(O)c2ccccc2-c2c(N3CCC(O)CC3)nc3ccccc3c21 (centres unmarked) [Compound 6, 6-(4-Hydroxypiperidin-1-yl)-11-methyl-11H-indeno[1,2-c]quinolin-11-ol]	> 10000	> 20	146 to 147	> 10000	89.83	inactive	inactive
OC1CCN(c2nc3ccccc3c3c2-c2ccccc2C3)CC1 [Compound 5, 1-(11H-Indeno[1,2-c]quinolin-6-yl)piperidin-4-ol]	4020 ± 1080	18 (≈ 56.9 µM)	–	5290 ± 480	85.41	weakly active	weakly active
O=C1c2ccccc2-c2c(N3CCCC(CO)C3)nc3ccccc3c21 (centres unmarked) [Compound 3g, 6-(3-Piperidinemethano-1-yl)-11H-indeno[1,2-c]quinolin-11-one]	2770 ± 470	3.07 (≈ 8.91 µM)	220 to 221	2120 ± 1190	92.25	–	–
O/N=C1\c2ccccc2-c2c(N3CCC(O)CC3)nc3ccccc3c21 [Compound 7, (E)-6-(4-Hydroxypiperidin-1-yl)-11H-indeno[1,2-c]quinolin-11-one Oxime]	830 ± 470	> 20	155 to 156	1390 ± 640	84.14	comparable anti-inflammatory activity	comparable anti-inflammatory activity
O=C(N/N=C1\c2ccccc2-c2c(N3CCC(O)CC3)nc3ccccc3c21)c1ccccc1 [Compound 11, (E)-N′-[6-(4-Hydroxypiperidin-1-yl)-11H-indeno[1,2-c]quinolin-11-ylidene]benzohydrazide]	1670 ± 870	1.98 (≈ 4.41 µM)	258 to 259	> 10000	89.55	–	inactive
CO/N=C1\c2ccccc2-c2c(N3CCC(O)CC3)nc3ccccc3c21 [Compound 8, (E)-6-(4-Hydroxypiperidin-1-yl)-11H-indeno[1,2-c]quinolin-11-one O-methyl Oxime]	2680 ± 950	> 20	183 to 184	2130 ± 920	91.48	comparable anti-inflammatory activity	comparable anti-inflammatory activity
COc1ccc2c(c1)C(=O)c1c-2c(N2CCCCC2)nc2ccccc12 [Compound 4b]	> 10000	> 20	–	> 10000	99.55	–	–
